The record followed here is US20240239861A1, “GLUCAGON-RECEPTOR SELECTIVE POLYPEPTIDES AND METHODS OF USE THEREOF” (i2O Therapeutics, Inc., priority 2016, published 2024).

A word on the EC50: it is the concentration giving half of the maximal effect. In general, solubility refers to the concentration that dissolves in the medium under given conditions. One may read the clearance as the volume of plasma or blood freed of the substance per unit of time. Higher therefore signals a high capacity for elimination.

For one series, the target named is human GCGR (Homo sapiens, UniProt P47871). Put plainly: Peptide-receptor mediated cAMP accumulation (LANCE Ultra cAMP) in CHO-K1 cells transfected with human GCGR. Format: cell-based. Particulars: for hGCGR pEC50 (cAMP mean (n = 3): 11 point curve starting at 1 nM): Table 3. On the technique in general: Changes in cAMP serve as a functional read-out for many G protein-coupled receptors.

Another series concerns the target human GLP-1R (Homo sapiens, UniProt P43220). Put plainly: Peptide-receptor mediated cAMP accumulation (LANCE Ultra cAMP) in CHO-K1 cells transfected with human GLP-1R. The series is classed as cell-based.
The nature of series [1]: Solubility in water or saline at room temperature, visual inspection. Format: physicochemical. From the text: Samples were visually inspected for clarity of the sample, any appearance of turbidity or haziness.
A short description of series [2]: Stability in water or saline at 37° C. and room temperature, 30 days, LC/MS and HPLC purity. Format: physicochemical. From the text:
Samples were withdrawn at a regular interval for 30 days and analyzed by LC/MS and HPLC for determination of purity and mass of the degradation product.

Series [3] in a line: 3-hour intravenous infusion pharmacokinetics, peptide clearance (CL). Particulars: male, rat, in vivo.
Another series is described as follows: in vivo. Particulars: male, rat.
[4] abbreviates: hGLP1 pEC50 (cAMP mean (n = 3): 11 point curve starting at 1 nM, Table 3).
Where [5] appears, read: hGLP1 pEC50 (cAMP) mean (n = 9): 11 point curve starting at 500 uM, Table 2A.

Like-named read-outs stand apart in the source and are kept apart here. Where a SMILES comes first, the peptide text is derived from it. [ ]: non-standard residue; d: D form. Aib = CC(C)(N)C(=O)O

human GLP-1R, sequence (P43220 24-463): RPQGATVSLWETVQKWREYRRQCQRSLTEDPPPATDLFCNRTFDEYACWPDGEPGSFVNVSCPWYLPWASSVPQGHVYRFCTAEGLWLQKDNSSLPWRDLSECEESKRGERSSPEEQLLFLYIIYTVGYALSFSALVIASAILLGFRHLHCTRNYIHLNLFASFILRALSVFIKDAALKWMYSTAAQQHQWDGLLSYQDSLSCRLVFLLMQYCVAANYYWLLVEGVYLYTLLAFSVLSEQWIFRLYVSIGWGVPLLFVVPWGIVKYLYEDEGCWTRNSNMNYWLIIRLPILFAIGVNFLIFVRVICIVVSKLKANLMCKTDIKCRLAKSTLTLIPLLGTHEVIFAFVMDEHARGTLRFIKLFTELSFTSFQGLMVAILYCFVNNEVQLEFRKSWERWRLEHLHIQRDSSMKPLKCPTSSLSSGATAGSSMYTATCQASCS
human GCGR, sequence (P47871 26-477): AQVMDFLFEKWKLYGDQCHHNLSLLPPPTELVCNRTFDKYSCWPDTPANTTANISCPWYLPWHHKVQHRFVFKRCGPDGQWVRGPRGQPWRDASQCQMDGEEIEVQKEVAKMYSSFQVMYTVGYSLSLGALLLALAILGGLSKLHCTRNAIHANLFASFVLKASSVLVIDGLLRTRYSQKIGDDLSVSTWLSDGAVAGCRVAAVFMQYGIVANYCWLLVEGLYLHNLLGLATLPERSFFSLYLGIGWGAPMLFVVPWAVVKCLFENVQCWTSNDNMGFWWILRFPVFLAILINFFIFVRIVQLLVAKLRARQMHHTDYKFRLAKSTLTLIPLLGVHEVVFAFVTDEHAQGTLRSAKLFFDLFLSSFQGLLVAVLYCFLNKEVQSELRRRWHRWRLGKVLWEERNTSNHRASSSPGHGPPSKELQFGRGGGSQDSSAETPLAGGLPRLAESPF

With `CC[C@H](C)[C@H](NC(=O)[C@@H](NC(=O)[C@H](Cc1ccccc1)NC(=O)[C@H](CCC(=O)O)NC(=O)[C@H](CCC(N)=O)NC(=O)[C@H](C)NC(=O)[C@H](CCCNC(=N)N)NC(=O)[C@H](CCCCN)NC(=O)C(C)(C)NC(=O)[C@H](CC(=O)O)NC(=O)[C@H](CC(C)C)NC(=O)[C@H](Cc1ccc(O)cc1)NC(=O)[C@H](CCCCN)NC(=O)[C@H](CO)NC(=O)[C@H](Cc1ccc(O)cc1)NC(=O)[C@H](CC(=O)O)NC(=O)[C@H](CO)NC(=O)[C@@H](NC(=O)[C@H](Cc1ccccc1)NC(=O)[C@@H](NC(=O)CNC(=O)[C@H](Cc1c[nH]cn1)NC(=O)[C@H](CO)NC(=O)[C@@H](N)Cc1ccc(O)cc1)[C@@H](C)O)[C@@H](C)O)C(C)C)C(=O)N[C@@H](Cc1c[nH]c2ccccc12)C(=O)N[C@@H](CC(C)C)C(=O)N[C@@H](CCC(=O)O)C(=O)N[C@@H](CC(=O)O)C(=O)N[C@@H](CCC(=O)O)C(=O)N1CCC[C@H]1C(=O)N[C@@H](CO)C(=O)N[C@@H](CO)C(=O)NCC(=O)N[C@@H](C)C(=O)N1CCC[C@H]1C(=O)N1CCC[C@H]1C(=O)N1CCC[C@H]1C(=O)N[C@@H](CO)C(=O)O` [Compound A4], the EC50 on human GCGR was 0.00158 nM; on human GLP-1R (setting [4]), more than 10000 nM; on human GLP-1R (setting [5]) it was more than 10000 nM. Moreover, at human GCGR, the “hGCGR pEC50 (cAMP mean (n = 3): 11 point curve starting at 1 nM)” value (from here on “hGCGR pEC50”) was 11.8. Besides, in series [1] (Table 3, room temperature, read-out: Solubility in water), the solubility was more than 200 mg/mL. The “Stability 1 mg/ml in water at 37 degC” value in series [2] (Table 3, % printed only in cells of A1-A6) is reported as more than 81%. Besides, the “CL” value in the series “FIGURE 2B” is on record as 15.0 ± 0.7 mL/min/kg. For the same compound, the clearance in series [3] was 12.6 mL/min/kg.
Take `CC(C)C[C@H](NC(=O)[C@H](Cc1ccc(O)cc1)NC(=O)[C@H](CCCCN)NC(=O)[C@H](CO)NC(=O)[C@H](Cc1ccc(O)cc1)NC(=O)[C@H](CC(=O)O)NC(=O)[C@H](CO)NC(=O)[C@@H](NC(=O)[C@H](Cc1ccccc1)NC(=O)[C@@H](NC(=O)CNC(=O)[C@H](Cc1c[nH]cn1)NC(=O)[C@H](CO)NC(=O)[C@@H](N)Cc1ccc(O)cc1)[C@@H](C)O)[C@@H](C)O)C(=O)N[C@@H](CC(=O)O)C(=O)N[C@@H](CO)C(=O)N[C@@H](C)C(=O)N[C@@H](CCCNC(=N)N)C(=O)N[C@@H](C)C(=O)N[C@@H](CCC(N)=O)C(=O)N[C@@H](CCC(=O)O)C(=O)N[C@@H](Cc1ccccc1)C(=O)N[C@H](C(=O)N[C@@H](CCCCN)C(=O)N[C@@H](Cc1c[nH]c2ccccc12)C(=O)N[C@@H](CC(C)C)C(=O)N[C@@H](CCC(=O)O)C(=O)N[C@@H](CC(=O)O)C(=O)N[C@@H](CCC(=O)O)C(=O)N1CCC[C@H]1C(=O)N[C@@H](CO)C(=O)N[C@@H](CO)C(=O)NCC(=O)N[C@@H](C)C(=O)N1CCC[C@H]1C(=O)N1CCC[C@H]1C(=O)N1CCC[C@H]1C(=O)N[C@@H](CO)C(N)=O)C(C)C` [Compound A5] (H-YSHGTFTSDYSKYLDSARAQEFVKWLEDEPSSGAPPPS-NH2; N-terminus assumed): the EC50 on human GCGR (Table 2A) was 0.00158 nM; at human GLP-1R (setting [4]), 1580 nM; at human GLP-1R (setting [5]), 1580 nM. Further, the “hGCGR pEC50” value at human GCGR stood at 11.8. Also, the solubility in series [1] (Solubility in water mg/ml) was more than 200 mg/mL. In series [2], the “Stability 1 mg/ml in water at 37 degC” value was more than 94%. Moreover, in “in vivo”, the clearance stood at 11.7 mL/min/kg. In addition, the “CL” value in “FIGURE 2B” was 22.6 ± 0.6 mL/min/kg.
Turning to `CC(C)C[C@H](NC(=O)[C@H](Cc1ccc(O)cc1)NC(=O)[C@H](CCCCN)NC(=O)[C@H](CO)NC(=O)[C@H](Cc1ccc(O)cc1)NC(=O)[C@H](CC(=O)O)NC(=O)[C@H](CO)NC(=O)[C@@H](NC(=O)[C@H](Cc1ccccc1)NC(=O)[C@@H](NC(=O)CNC(=O)[C@H](Cc1c[nH]cn1)NC(=O)[C@H](CO)NC(=O)[C@@H](N)Cc1ccc(O)cc1)[C@@H](C)O)[C@@H](C)O)C(=O)N[C@@H](CC(=O)O)C(=O)NC(C)(C)C(=O)N[C@@H](CCCCN)C(=O)N[C@@H](CCCNC(=N)N)C(=O)N[C@@H](C)C(=O)N[C@@H](CCC(N)=O)C(=O)N[C@@H](CCC(=O)O)C(=O)N[C@@H](Cc1ccccc1)C(=O)N[C@H](C(=O)NC(C)(C)C(=O)N[C@@H](Cc1c[nH]c2ccccc12)C(=O)N[C@@H](CC(C)C)C(=O)N[C@@H](CCC(=O)O)C(=O)N[C@@H](CC(=O)O)C(=O)N[C@@H](CCC(=O)O)C(=O)N1CCC[C@H]1C(=O)N[C@@H](CO)C(=O)N[C@@H](CO)C(=O)NCC(=O)N[C@@H](C)C(=O)N1CCC[C@H]1C(=O)N1CCC[C@H]1C(=O)N1CCC[C@H]1C(=O)N[C@@H](CO)C(=O)O)C(C)C` [Compound A99], the EC50 at human GLP-1R (setting [4]) is more than 1 nM; at human GLP-1R (hGLP1 pEC50 (cAMP) mean (n = 3): 11 point curve starting at 1 nM, Table 2B) it was more than 1 nM. For the same compound, in series [1] (Solubility in water mg/ml), the solubility was more than 200 mg/mL. In addition, the “Stability 1 mg/ml in water at 37 degC” value in series [2] is recorded as more than 64%. Besides, the clearance in “in vivo” came out at 23 mL/min/kg. Besides, the “CL” value in “FIGURE 2A” is recorded as 22.3 ± 1.9 mL/min/kg.
For `CC(C)C[C@H](NC(=O)[C@H](Cc1ccc(O)cc1)NC(=O)[C@H](CCCCN)NC(=O)[C@H](CO)NC(=O)[C@H](Cc1ccc(O)cc1)NC(=O)[C@H](CC(=O)O)NC(=O)[C@H](CO)NC(=O)[C@@H](NC(=O)[C@H](Cc1ccccc1)NC(=O)[C@@H](NC(=O)CNC(=O)[C@H](CCC(N)=O)NC(=O)[C@H](CO)NC(=O)[C@@H](N)Cc1c[nH]c2ccccc12)[C@@H](C)O)[C@@H](C)O)C(=O)N[C@@H](CC(=O)O)C(=O)NC(C)(C)C(=O)N[C@@H](CCCCN)C(=O)N[C@@H](CCCNC(=N)N)C(=O)N[C@@H](C)C(=O)N[C@@H](CCC(N)=O)C(=O)N[C@@H](CCC(=O)O)C(=O)N[C@@H](Cc1ccccc1)C(=O)N[C@H](C(=O)NC(C)(C)C(=O)N[C@@H](Cc1c[nH]c2ccccc12)C(=O)N[C@@H](CC(C)C)C(=O)N[C@@H](CCC(=O)O)C(=O)N[C@@H](CC(=O)O)C(=O)N[C@@H](CCC(=O)O)C(=O)N1CCC[C@H]1C(=O)N[C@@H](CO)C(=O)N[C@@H](CO)C(=O)NCC(=O)N[C@@H](C)C(=O)N1CCC[C@H]1C(=O)N1CCC[C@H]1C(=O)N1CCC[C@H]1C(=O)N[C@@H](CO)C(=O)O)C(C)C` [Compound A6] (H-WSQGTFTSDYSKYLD[Aib]KRAQEFV[Aib]WLEDEPSSGAPPPS-OH; N-terminus assumed), the figures for the EC50 on human GCGR (Table 2A), at human GLP-1R (setting [4]) and at human GLP-1R (setting [5]) were 0.002 nM, 5010 nM and 5010 nM, respectively. In addition, the “hGCGR pEC50” value at human GCGR is listed as 11.7. The solubility in series [1] (Solubility in water mg/ml) is more than 200 mg/mL. In series [2], the “Stability 1 mg/ml in water at 37 degC” value was more than 80%. This compound also showed a clearance in “in vivo” of 12.4 mL/min/kg. Further, in “FIGURE 2B”, the “CL” value is given as 9.2 ± 0.2 mL/min/kg.
